These results are taken from ChEMBL document CHEMBL1124708, “Glycolipids as host resistance stimulators” (1990).

Assay [1] concerns Pseudomonas aeruginosa. Put plainly: Protective index against Pseudomonas aeruginosa after 40 mg/kg subcutaneous administration pretreated 250 mg/kg cytoxan intraperitoneal on day -4. Format: functional.
The nature of assay [2]: (§1) Log value of the protective index was calculated. It is filed as functional.
Assay [3] is filed under the species Mus musculus. The description is as §1. It is filed as functional, organism-based.
Assay [4] can be described thus: as §1.
The subject of assay [5] is Pseudomonas aeruginosa. Briefly: (§2) No of CFU was determined that cause 50% lethality against Pseudomonas aeruginosa after 40 mg/kg sc administration. Format: functional. The conditions noted are these: route subcutaneous.
Assay [6] has as its system Mus musculus. Put plainly: Protective index of Pseudomonas aeruginosa after 4 mg/kg sc administration pretreated 250 mg/kg cytoxan ip. It is filed as functional.
For assay [7], the system named is Mus musculus. Put plainly: Protective index of Pseudomonas aeruginosa after 40 mg/kg sc administration pretreated 250 mg/kg cytoxan ip on day -7. It is filed as functional.
Assay [8] deals with Mus musculus. Put plainly: Protective index of Pseudomonas aeruginosa after 40 mg/kg im administration pretreated 250 mg/kg cytoxan ip on day -1. Format: functional.
The test system of assay [9] is Mus musculus. Briefly: Protective index of Pseudomonas aeruginosa after 40 mg/kg im administration pretreated 250 mg/kg cytoxan ip on day -2. It is filed as functional.
Assay [10] deals with Mus musculus. Briefly: protective index of Pseudomonas aeruginosa after 40 mg/kg im administration pretreated 250 mg/kg cytoxan ip on day -1. It is filed as functional.
Assay [11] has as its system Mus musculus. Put plainly: Protective index of Pseudomonas aeruginosa after 40 mg/kg ip administration pretreated 250 mg/kg cytoxan ip on day -4. It is filed as functional.
Assay [12] deals with Mus musculus. Put plainly: No of CFU was determined that cause 50% lethality against Pseudomonas aeruginosa after 40 mg/kg ip administration. Format: functional. Particulars: route intraperitoneal.
Assay [13] has as its system Mus musculus. Briefly: Protective index of Pseudomonas aeruginosa after 40 mg/kg sc administration pretreated 250 mg/kg cytoxan ip on day -4. It is filed as functional.
Assay [14] has as its system Mus musculus. The description is as §2. It is filed as functional. The conditions noted are these: route subcutaneous.
The test system of assay [15] is Mus musculus. Briefly: Protective index Pseudomonas aeruginosa after 40 mg/kg sc administration pretreated 250 mg/kg cytoxan ip on day -4. Format: functional.

Molecules are shown by their SMILES. Where “and” joins values, the source holds several entries; their conditions need not be identical. Equal values may be shown once.

Take `CC(C)CCC[C@@H](C)[C@H]1CC[C@H]2[C@@H]3CC=C4C[C@@H](OCCCCCCS[C@@H]5O[C@@H](CO)[C@@H](O[C@@H]6O[C@@H](CO)[C@H](O)[C@H](O)[C@@H]6O)[C@H](O)[C@@H]5O)CC[C@]4(C)[C@H]3CC[C@]12C`: the PI in the assay on Pseudomonas aeruginosa [1] came to 3.5.

Regarding `CC(=O)NC1C(SCCCCCCOC2CCC3(C)C(=CCC4C3CCC3(C)C(C(C)CCCC(C)C)CCC43)C2)OC(CO)C(O)C1O` (stereo in doubt; form 2) [listing 1 of 2 here], the Log PI in [2] is 0.

For the compound `CC(=O)NC1C(SCCCCCCOC2CCC3(C)C(=CCC4C3CCC3(C)C(C(C)CCCC(C)C)CCC43)C2)OC(CO)C(O)C1O` (stereo in doubt; form 1) [listing 1 of 2 here], the Log PI in the assay filed under Mus musculus [3] was 0.

With `CC(C)CCCC(C)[C@H]1CC[C@H]2C3CC=C4C[C@@H](OCCCCCCS[C@@H]5O[C@@H](CO)[C@@H](O)[C@H](O)[C@@H]5O)CC[C@]4(C)[C@H]3CC[C@]12C` (stereo in doubt; form 2), the Log PI (in the assay filed under Mus musculus [3]; in assay [4]) was 0 throughout.

As for `CC(=O)NC1C(SCCCCCCOC2CCC3(C)C(=CCC4C3CCC3(C)C(C(C)CCCC(C)C)CCC43)C2)OC(CO)C(O)C1O` (stereo in doubt; form 1) [listing 2 of 2 here], the “No. of Colony forming Units” value in the assay on Pseudomonas aeruginosa [5] (40 mg/kg) is 5.67 and 7.5. In the assay on Pseudomonas aeruginosa [1], the PI is 0.53 and 0.7.

For the compound `CC(C)CCCC(C)[C@H]1CC[C@H]2C3CC=C4C[C@@H](OCCCCCCS[C@@H]5O[C@@H](CO)[C@@H](O)[C@H](O)[C@H]5O)CC[C@]4(C)[C@H]3CC[C@]12C` (some centres not stated), the Log PI in assay [2] is 4.02. The PI is 2.59 in the assay on Mus musculus [6]; 4.81 in the assay on Mus musculus [7]; 2.29 in the assay with Mus musculus [8]; 9.52 with Mus musculus [9]; 2.29 with Mus musculus [10].

For the compound `CC(C)CCCC(C)C1CCC2C3CC=C4CC(OCCCCCCSC5OC(CN)C(O)C(O)C5O)CCC4(C)C3CCC12C` (configuration not stated), the PI in the assay with Pseudomonas aeruginosa [1] is 0.98.

With `CC(C)CCCC(C)[C@H]1CC[C@H]2C3CC=C4C[C@@H](OCCCCCCS[C@@H]5O[C@@H](CO)[C@@H](O)[C@H](O)[C@@H]5O)CC[C@]4(C)[C@H]3CC[C@]12C` (stereo in doubt; form 1) [listing 1 of 2 here], the “No. of Colony forming Units” value is 56.7 and 47 and 101 in the assay on Pseudomonas aeruginosa [5] (40 mg/kg); 76 in the assay on Mus musculus [12]. Moreover, the PI was 0.53 and 0.94 in the assay with Pseudomonas aeruginosa [1]; 4.75 in the assay with Mus musculus [11]; 2.94 with Mus musculus [13].

Consider `CC(=O)NC1C(SCCCCCCOC2CCC3(C)C(=CCC4C3CCC3(C)C(C(C)CCCC(C)C)CCC43)C2)OC(CO)C(O)C1O` (stereo in doubt; form 2) [listing 2 of 2 here], for which, in the assay on Pseudomonas aeruginosa [5] (40 mg/kg), the “No. of Colony forming Units” value is 56.7 and 75.

Regarding `CC(C)CCCC(C)[C@H]1CC[C@H]2C3CC=C4C[C@@H](OCCCCCCS[C@H]5O[C@@H](CO)[C@@H](O)[C@H](O)[C@H]5O)CC[C@]4(C)[C@H]3CC[C@]12C` (some centres not stated), the Log PI in assay [2] is 1.53.

In the case of `CC(C)CCOC(=O)C1CCC2C3CC=C4CC(OCCCCCCSC5OC(CO)C(O)C(O)C5O)CCC4(C)C3CCC12C` (configuration not stated), in the assay with Pseudomonas aeruginosa [1], the PI came to 1.01.

For `CC(C)CCCC(C)[C@H]1CC[C@H]2C3CC=C4C[C@@H](OCCCCCCS[C@@H]5O[C@@H](CO)[C@@H](O)[C@H](O)[C@@H]5O)CC[C@]4(C)[C@H]3CC[C@]12C` (stereo in doubt; form 1) [listing 2 of 2 here], in assay [2], the Log PI was 0.

For the compound `CC(C)CCCC(C)C1CCC2C3CC=C4CC(OCCCCCCSC5OCC(O)C(O)C5O)CCC4(C)C3CCC12C` (configuration not stated), in the assay on Pseudomonas aeruginosa [1], the PI worked out at 1.01.

For the compound `CC(=O)N[C@H]1C(O)O[C@@H](COC(=O)[C@H]2CC[C@@]3(C)C(=CC[C@H]4[C@@H]5CC[C@H]([C@H](C)CCCC(C)C)[C@@]5(C)CC[C@@H]43)C2)[C@@H](O)[C@@H]1O[C@@H](C)C(=O)N[C@@H](C)C(=O)N[C@@H](CCC(=O)O)C(N)=O` (some centres not stated), the “No. of Colony forming Units” value in the assay on Pseudomonas aeruginosa [5] stood at 16000. Also, the PI in the assay on Pseudomonas aeruginosa [1] is listed as 1000.

For `CC(=O)N[C@@H]1C(O)O[C@@H](CO)[C@@H](O)[C@@H]1O[C@@H](C)C(=O)N[C@@H](C)C(=O)N[C@@H](CCC(=O)O)C(N)=O` (some centres not stated), in assay [2], the Log PI is 0.27. The PI in the assay with Mus musculus [14] was 1.31; in the assay with Mus musculus [15], 1.87 and 1.31.

Regarding `COCC1OC(SCCCCCCOC2CCC3(C)C(=CCC4C3CCC3(C)C(C(C)CCCC(C)C)CCC43)C2)C(O)C(O)C1O` (configuration not stated), the PI in the assay with Pseudomonas aeruginosa [1] is on record as 0.53.

Regarding `CC(C)CCCC(C)C1CCC2C3CC=C4CC(OCCCCCCCCSC5OC(CO)C(O)C(O)C5O)CCC4(C)C3CCC12C` (configuration not stated), the PI with Pseudomonas aeruginosa [1] is on record as 0.58.

`CC(C)CCCC(C)C1CCC2C3CC=C4CC(OCCCCSC5OC(CO)C(O)C(O)C5O)CCC4(C)C3CCC12C` (configuration not stated): the PI in the assay with Pseudomonas aeruginosa [1] is given as 0.84.
